Laboratory results from paper PMC7555119, “Characterization of Novel Synthetic Polyphenols: Validation of Antioxidant and Vasculoprotective Activities” (Antioxidants, 2020).
In brackets after ≈: the same amount, converted by molar mass. Where two headings read alike, the source gives them in different places.

Assays:
[1] = DPPH free radical scavenging assay (RSA)
Description: For the 2,2′-diphenylpicrylhydrazyl (DPPH) assay, antioxidant compounds were dissolved in ethanol with a stock concentration of 4 mM and stirred for 24 h. DPPH (Alfa Aesar) was also dissolved in ethanol at 0.127 mM. Different compound solutions were prepared by serial dilutions of each stock solution ([…]). […] Amounts of 80 µL of each solution and 80 µL of DPPH were added in a 96-well plate. The absorbance was measured at different times (10, 20 and 30 min and 1 and 2 h) by a Multi-Detection Microplate Reader Synergy HT (λMAX = 515 nm). Radical scavenging activity (RSA, %) was calculated using Equation (1) (1) RSA(%)=ADPPH−AEXTRACT/ADPPH·100 where AEXTRACT and ADPPH correspond to the absorbance of DPPH with and without the extracts, respectively. Eight replicates were used for each compound and results were expressed as mean value ± standard deviation. The RSA half-maximal inhibitory concentration (IC50) values were calculated from the relationship curve of RSA versus concentrations by a non-linear fit using the software GraphPad Prism 7.

[2] = Stability in aqueous media (H2O/acetonitrile 80:20, HPLC-MS); format: physicochemical
Source text: The solutions were checked by HPLC-MS at regular intervals of time for 60 days. […] The rest of the compounds suffered progressive degradation, with complete disappearance from the solution after 10 or 20 days. The most unstable polyphenol derivatives were 4 and 10 (Figure S1), having both two p-dihydroxy substitutions in the phenyl rings, which points to the rapid and easy oxidation to the p-hydroquinone. From the four compounds with three phenyl rings, only one was stable in aqueous solution (17).

[3] = tested on: human dermal fibroblasts (HDF); assay: Cell viability, AlamarBlue assay; format: cell-based; settings: 24 h, AlamarBlue, non-linear fit
Description: Cytotoxicity of selected antioxidant compounds was assessed using human dermal fibroblasts (HDF, Innoprot, P10856) and an AlamarBlue assay. Human fibroblasts were grown and maintained using Dulbecco’s Modified Eagle Medium high glucose (DMEM, Sigma Aldrich, D6171), supplemented with 10% Fetal Bovine Serum (FBS), 2% L-glutamine and 1% penicillin/streptomycin. Cells were incubated at 37 °C, 95% relative humidity and 5% CO2. Additionally, DMEM-high glucose, HEPES, no phenol red (Gibco, 2106329) was used to prepare the AlamarBlue solution. Stock solutions of the antioxidant compounds 3, 8, 15 and 17 were prepared in dimethyl sulfoxide (DMSO). Compound 7 was not soluble enough in DMSO to obtain a cell viability IC50 value. Serial dilutions of the antioxidant compounds were prepared using the previously mentioned stock solutions and DMEM. Final DMSO concentration was maintained lower than 1% v/v in the cell culture experiments. HDF were seeded at 9 × 10^4 cells/well in a 96-well plate and incubated for 24 h. The medium was replaced by the corresponding antioxidant solutions and incubated for an additional 24 h. Then, compounds were removed, cells were washed with Dulbecco’s Phosphate Buffered Saline (PBS, Sigma Aldrich) and treated with a 10% v/v AlamarBlue (Invitrogen) solution prepared in DMEM without phenol red. After 3 h of incubation, absorbance was monitored at 570 nm by a Multi-Detection Microplate Reader Synergy HT. Cells treated with DMEM without any antioxidant compound were used as the 100% viability control. Eight replicates were used for each antioxidant solution. IC50 values were obtained by a non-linear fit using the software GraphPad Prism 7.

[4] = tested on: NADPH oxidase activity in segments of aorta from C57BL6/J mice; assay: NADPH oxidase activity in aortic segments stimulated ex vivo with IL-1β; settings: IL-1β 10 ng/mL 6 h
Description: Aortic segments from three-month-old C57BL6/J mice were incubated with IL-1β (10 ng/mL, 6 h, Sigma Aldrich) in the presence and in the absence of the different compounds that were added 30 min before stimulation.
The O2 production generated by NADPH oxidase was determined by a chemiluminescence assay. Briefly, endothelial cells or aortic segments were homogenized in phosphate buffer (50 mmol/L KH2PO4, 1 mmol/L EGTA, 150 mmol/L sucrose, pH 7.4). The reaction was started by the addition of a lucigenin (5 μmol/L) and NADPH (100 μmol/L; Sigma-Aldrich) mixture to the protein sample in a final volume of 250 μL. Chemiluminescence was determined every 2.4 s for 3 min in a microtiter plate luminometer (Enspire Perkin Elmer). Basal activity in the absence of NADPH was subtracted from each reading and normalized to protein concentration. Data were normalized vs. control situation.

[5] = tested on: Saccharomyces cerevisiae strain BY4741; assay: In vivo antioxidant capacity in stressed yeasts (growth recovery, survivors); format: cell-based
Description: Saccharomyces cerevisiae haploid strain BY4741 was used as described previously. Briefly, 20 μL of glycerol stock culture was revived in 5ml of YPD medium (1% yeast extract, 2% bacteriological peptone and 2% dextrose) at 28 °C, with shaking (210 rpm). Fifty microliters of 20-h-old culture was used to inoculate fresh 5ml YPD (control medium) or 5 mL of oxidative stress medium (YPOxD: YPOxD; 1% yeast extract, 2% bacteriological peptone, 1% dextrose and 3% H2O2). Stress (and control) was conducted during 16h at 28 °C, with shaking (220 rpm).
Growth rate was determined from growth kinetics using the BioScreen C plate-reader system (OY Growth Curves Ab Ldt., Helsinki, Finland). Stressed yeast cultures (16 h old) were used to inoculate 200 µl of fresh media to an initial OD595 of 0.05–0.07, being distributed in 100-well honeycomb plates (Oy Growth Curves) in triplicate per each condition (each different dose of each compound). Plates were then incubated at 28 °C for 72h, with shaking (High force), taking OD measurement each 15 min in the Bioscreen C. Maximum growth rate (μmax) and biomass production (carrying capacity) were determined in R using ‘Growthcurver’ package version 0.3 [24]. Growth curves were constructed in EXCEL, represented as mean ± SEM (standard error of mean). […] In addition, to measure survival after oxidative stress and antioxidant effectiveness of each compound, yeast cells from each challenge were serially diluted in 96-well plates, and each dilution was spotted (with a 8 × 6 stainless steel replica platter from SIGMA) in triplicate to determine viable colonies after 24–48 h at 28 °C. Survivors (mean ± SEM) were compared between treatments with one-way ANOVA, Fisher’s LSD test, with alpha at 0.05 for significance.

[6] = Aqueous thermodynamic solubility in H2O (UV); format: physicochemical; settings: water, thermodynamic from solid
Source text: 4) Log P and aqueous solubility of selected compounds.
Table S2. Theoretical Log P values and aqueous thermodynamic solubility measured for
Comp `Chemical Structure MW LogP Calc Aqueous Solubility a
a Thermodynamic solubility in H 2O (UV). […]

With `O=C(Nc1ccc(O)cc1)N(c1ccc(O)cc1)c1ccc(O)cc1` [Compound 17, N,N-bis(4-Hydroxyphenyl)-N′-(4′-hydroxyphenyl)urea] the “concentration down to which RSA ability is maintained independently of time” value ([1]; 10 min to 2 h) was 0.25 mM, the “RSA capacity fold higher compared to resveratrol” value ([1]; after 10 min, from IC50) was 3.7 fold and the IC50 ([1]; compound needed to reach 50% RSA after 10 min, read-out: DPPH PSA IC50 10 min) was 17.9 µM. For the same compound, the RSA percentage ([1]; highest concentration 2 mM, 10 min) was ~72%, the IC50 ([1]; read-out: DPPH PSA IC50 2 h, compound needed to reach 50% RSA after 2 h) was 9.6 µM and the “stability in aqueous media” value ([2]; H2O/acetonitrile (80:20%), room temperature, checked for 60 days) was “sufficiently stable”. The “Aqueous Stability (%)” value ([2]; remaining pure compound (HPLC) after two months at room temperature in aqueous solution (+20% acetonitrile)) was 93%, the IC50 [3] was > 1400 µM and the IC50 ([3]; Homo sapiens, Fibroblast) was 1790 µM. The “effect on NADPH oxidase activity induced by IL-1β” value [4] was “significant inhibition of the IL-1β effects”, the “growth rate (r) recovery of stressed yeast” value ([5]; H2O2-stressed BY4741, doses 2, 20 and 40 μg) was “best performing antioxidant” and the “carrying capacity (k) recovery of stressed yeast” value ([5]; H2O2-stressed BY4741, each dose tested) was “able to recover the carrying capacity of yeast cells similarly as control antioxidants”. For the same compound, the solubility [6] was 620 ± 10 µg/mL (≈ 1840 µM) and the melting point was 186 to 187 °C (dec.).
